# Measured values from article PMC9959349, “Discovery of the 3-Amino-1,2,4-triazine-Based Library as Selective PDK1 Inhibitors with Therapeutic Potential in Highly Aggressive Pancreatic Ductal Adenocarcinoma” (International Journal of Molecular Sciences, 2023).
# Columns and labels:
# [1] = target: recombinant human HSP90 (Homo sapiens, UniProt P07900); test: HSP90 inhibition assay (Transcreener ADP kit); format: biochemical; conditions: 1.5 µM compound (equivalent doses)
# Experimental: The in vitro inhibitory activity of tested compounds on recombinant human HSP90 was assessed by The Transcreener™ ADP kit (Bellbrook Labs) according to the manufacturer’s protocol. Human recombinant HSP90 protein was incubated with tested compounds in the presence of 250 μM ATP at 37 °C for 30 min, 4°C for 30 min and ATPase activity was stopped via the addition of the stop and detect buffer. Following this, samples were incubated for 1 h at room temperature with the ADP2 Antibody and the ADP Alexa594 Tracer. The fluorescence intensity polarization of samples was measured with a Tecan plate reader (Tecan Infinite® M200). The evaluation was based on means from at least three independent experiments.
# [2] = test system: S232 PDH E1 alpha protein (PDHA1) phosphorylation in PSN-1 cells; test: Cellular PDH phosphorylation (ELISA); format: cell-based, human; conditions: 24 h, IC50 concentrations
# Experimental: As a first step, the ability of representative derivatives to target PDK in intact cancer cells was assessed by evaluating their effect on PDH phosphorylation of PSN-1 cancer cells.
# PSN-1 cells (2 × 10^5) were seeded in a six-well plate in growth medium (4 mL). After 24 h, cells were incubated for 24 h with IC50 concentrations of tested compounds. Subsequently, the phosphorylation level of S232 PDH E1 alpha protein (PDHA1) was assessed by ELISA Kit (Abcam) following the manufacturer’s instructions. The amount of phosphorylated S232 PDHA1 protein was detected by measuring the absorbance of each well at 600 nm, using a Bio-Rad 680 microplate reader.
# [3] = test system: PSN-1 cells; test: Cell death induction, Hoechst 33258 staining; format: cell-based, human; conditions: 48 h, IC50 doses
# Experimental: As a last mechanistic evaluation, the ability of selected compounds 5i and 6h to induce cancer cell death by means of apoptosis, was also assessed.
# PSN-1 cells were seeded into 8-well tissue-culture slides (BD Falcon, Bedford, MA, USA) at 5 × 10^4 cells/well (0.8 cm^2). […] Samples were examined at 5× and 40× magnification in a Zeiss LSM 800 confocal microscope using the Zeiss ZEN 2.3 software system (Zeiss, Oberkochen, Germany).
# [4] = Body weight changes of LLC-bearing mice; format: in vivo; conditions: LLC-bearing C57BL mice, 5i 20 mg kg−1 daily i.p.
# [5] = test system: BxPC-3 cells; test: 3D spheroid cytotoxicity, acid phosphatase (APH) assay, BxPC-3; conditions: read-out: IC50 ±S.D. BxPC-3 (3D cytotoxicity); spheroids, 72 h, APH test
# Experimental: The PDAC cancer spheroids were treated with tested compounds for 72 h, and cell viability was assessed by means of the acid phosphatase (APH) assay (Table 3).
# An APH-modified assay was used for determining cell viability in 3D spheroids, as previously described [61]. Briefly, the pre-seeded spheroids were treated with fresh medium containing the compound to be studied at the appropriate concentration (range 2.5–200 μM). Triplicate cultures were established for each treatment. After 72 h, each well was treated with 100 μL of the assay buffer (0.1 M sodium acetate, 0.1% Triton-X-100, supplemented with ImmunoPure p-nitrophenyl phosphate; Sigma Chemical Co., Ltd.) and, following 3 h of incubation, 10 μL of 1 M NaOH solution was added. […] The mean absorbance for each drug dose was expressed as a percentage of the control untreated well absorbance (T/C) and plotted vs. drug concentration. […] The evaluation was based on means from at least four independent experiments.
smiles,measurement,setting,value
Cn1cc(-c2nnc(N)nc2-c2cn(C)c3ccc(F)cc23)c2ccccc21 [5i],decrease of HSP90 catalytic activity,[1],60–80%
same,reduction in phospho-PDHA1 (S232) levels,[2],very similar to that exerted by the reference PDK inhibitor DAP
same,apoptosis induction (nuclear morphology),[3],brightly stained nuclei and morphological features typical of cells undergoing apoptosis
same,body weight loss (in words),[4],lower than that induced by cisplatin and gemcitabine
same,IC50,[5],34.1 ± 1.5 µM
